Measured values as given in patent US5405857A, “3-substituted 1,2,3,4,-oxatriazole-5-imine compounds, a process for the preparation thereof and a pharmaceutical preparation containing said compounds” (A/S GEA Farmaceutisk Fabrik, priority 1991, dated 1995).
Counter-ions that a name gives are not always drawn. Like-named read-outs stand apart in the source and are kept apart here.

Tests used:
male rats = conditions: rat, in vivo, po, 20 mg/kg
Description: Two tests were carried out on male rats, namely a determination of the "maximum tolerable dose" (MTD) and a test using multiple peroral doses. In addition, a LD50 test was carried out intravenously on mice.
At this test the substances were administered perorally in a dose of 20 mg per kg. as solutions or suspensions once a day for 5 days to groups of 5 animals. Clinical observations were made every day and the above hematological parameters were measured on the third day of the test.

blood platelets = experiment: Inhibition of blood platelet aggregation (aggregometer, ADP); assay type: cell-based, human (healthy testees); conditions: for IC50: Platelet, 0.05 h, read-out: IC50 (Inhibition of blood platelet aggregation)
Description: Compounds according to the invention were tested for their inhibition of clumping together (aggregation) of blood platelets (thrombocytes), which is the first phase of the formation of blood clots (thrombi). Such an inhibition may prevent the formation of blood clots and inhibit the development of new thrombi after a diagnosed thrombus.
Citrate stabilized ( 0.38% of sodium citrate, final concentration) venous blood from healthy testees is used, who have not used medicine for at least 8 days. Slight centrifugation (160×g for 10 minutes) results in PRP (blood plasma rich in platelets) which is pipetted. PPP (blood plasma poor in platelets) is obtained by an intense centrifugation (3000×g for 10 minutes) of the remaining blood. The light transmission is measured by the aggregometer (CHRONOLOG). PRP allows nearly no light transmitaaion, while PPP allows complete transmission of light. The PRP is placed in the aggregometer at 37° C. while being stirred by a magnet. Addition of a pro-aggregating substance causes the PRP to aggregate gradually and an increasing light transmission takes place at the same time. At complete aggregation a light transmission corresponding to PPP is obtained. Adnosine diphosphate (ADP) is used as pro-aggregating substance, said substance representing a basic biochemical mechanism for aggregation of blood platelets. The test substances are incubated for 3 minutes in PRP placed in the aggregometer at 37° C. during magnetic stirring. A predetermined positively aggregating dosage of adenosine diphosphate (ADP) (2 to 4 μM) is then added. […] A so-called IC50 -value (that is the concentration inhibiting the aggregation by 50% relative to the control aggregation) is calculated for each test substance by linear regression analysis (log concentration μM as constant ad abscissa and % inhibition as variable ad ordinate). The following known reference substances have been used: nitroglycerine (GTN), sodium nitroprusside (NNP) and SIN-1 (the active metabolite of molsidomine).

PAI-1 = experiment: Inhibition of plasminogen activator inhibitor (PAI-1) from blood platelets (fibrinolytic activity); assay type: cell-based, human; conditions: 50 μM, 60 minutes; for % Inhibition of PAI-1 activity: compared to control; for PAI-1 activity: human PRP, control 3.24
Description: Compounds according to the invention were tested for their inhibition of plasminogen activator inhibitor (PAI). An established thrombus comprises aggregated platelets cohered by fibrin. The organism has a fibrinolyric system for maintaining normal physiological conditions. Endogenous plasminogen is activated to plasmin (fibrinolysin, that is a proteolytic enzyme decomposing fibrin) by means of a tissue plasminogen activator (t-PA). The platelets include the enzyme PAI-1 inhibiting the activation of plasminogen to plasmin, and thus also the decomposition of fibrin.
A general stimulation of the fibrinolytic system can cause serious hemostatic side effects (haemorrhages). A specific inhibition of PAI-1 induces an increased fibrinolysis in areas with many platelets, which is exactly the case in thrombi. As a result a thrombolytic effect is obtained.
Human PRP prepared by slight centrifugation as previously mentioned is used, but at a low temperature (4° C.). By incubation of PRP (1 ml in a plastic tube) during a slight shaking at 37° C. the PAI-1 activity is liberated, said PAI-1 activity being measured spectrophotometrically by means of a two-step procedure using commercial kits (Spectrolyse™/fibrin kit from BIOPOOL, Sweden).
The PAI-1 activity of the control PRP and PRP incubated with each of 6 compounds according to the invention and the reference substance sodium niroprusside (NNP) (50 μM of each for 60 minutes) appear from Table 6.

[1] = biological target: T1, soluble guanylate cyclase (Homo sapiens, UniProt Q02153); experiment: Stimulation of guanylate cyclase from blood platelets (RIA); assay type: biochemical; conditions: 37° C.
T1 construct: The guanylate cyclase activity in the supernatant after incubation with and without the test substance; endogenous in cells; host or cells: human blood platelets, supernatant of homogenate
T1 sequence (Q02153 1-619): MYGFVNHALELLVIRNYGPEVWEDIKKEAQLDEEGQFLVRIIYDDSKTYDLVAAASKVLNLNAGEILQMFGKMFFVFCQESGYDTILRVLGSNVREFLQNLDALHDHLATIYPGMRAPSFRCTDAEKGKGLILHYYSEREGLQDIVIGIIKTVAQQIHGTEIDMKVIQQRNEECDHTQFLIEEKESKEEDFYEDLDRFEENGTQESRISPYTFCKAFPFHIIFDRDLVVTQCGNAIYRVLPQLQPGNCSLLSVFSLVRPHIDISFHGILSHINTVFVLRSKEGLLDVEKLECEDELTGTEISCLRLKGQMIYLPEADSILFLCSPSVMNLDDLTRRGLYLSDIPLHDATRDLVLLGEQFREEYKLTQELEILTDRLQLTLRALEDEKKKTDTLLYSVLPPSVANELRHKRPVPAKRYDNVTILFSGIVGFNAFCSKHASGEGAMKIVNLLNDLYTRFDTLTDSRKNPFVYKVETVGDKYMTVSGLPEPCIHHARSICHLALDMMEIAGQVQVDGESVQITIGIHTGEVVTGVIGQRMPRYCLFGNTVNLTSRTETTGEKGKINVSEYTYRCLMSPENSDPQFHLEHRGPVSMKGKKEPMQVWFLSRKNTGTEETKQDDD
T1 sequence (Q02108 1-690 partner): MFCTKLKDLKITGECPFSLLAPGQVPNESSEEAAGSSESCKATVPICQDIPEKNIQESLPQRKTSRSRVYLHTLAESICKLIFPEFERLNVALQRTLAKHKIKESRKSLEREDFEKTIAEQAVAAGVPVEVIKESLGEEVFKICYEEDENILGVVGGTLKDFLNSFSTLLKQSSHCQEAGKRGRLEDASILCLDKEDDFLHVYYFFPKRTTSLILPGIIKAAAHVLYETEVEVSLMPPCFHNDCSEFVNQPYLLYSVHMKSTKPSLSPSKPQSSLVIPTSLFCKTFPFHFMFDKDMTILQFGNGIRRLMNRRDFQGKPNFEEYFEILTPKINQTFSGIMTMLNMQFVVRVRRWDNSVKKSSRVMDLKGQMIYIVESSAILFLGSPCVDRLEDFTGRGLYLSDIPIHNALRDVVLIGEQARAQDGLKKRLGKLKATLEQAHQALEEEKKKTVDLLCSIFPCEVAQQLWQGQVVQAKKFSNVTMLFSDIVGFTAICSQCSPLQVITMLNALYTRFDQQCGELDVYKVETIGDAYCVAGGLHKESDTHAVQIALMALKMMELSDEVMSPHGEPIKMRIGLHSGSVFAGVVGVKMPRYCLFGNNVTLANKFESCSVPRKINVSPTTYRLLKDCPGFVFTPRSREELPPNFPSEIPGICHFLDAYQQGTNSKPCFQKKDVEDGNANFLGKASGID

[2] = system: polymorph nuclear leukocytes (PMNs), c-GMP; experiment: Stimulation of c-GMP content in PMNs; assay type: cell-based, human; conditions: 37° C., 10 minutes
Description: Compounds according to the invention were tested for their ability to increase the content of cyclic guanosine monophosphate (c-GMP), to inhibit the synthesis of the leukotriene B4 (LTB4), and to inhibit the chemotactical movement of polymorph nuclear leukocytes (PMN). The polymorph nuclear leukocytes play a vital part in the cellular part of the inflammation process. At diseases, such as asthma, the mucuos membrane of the respiratory passages is swollen as a result of an inflammation with a significant infiltration of polymorph nuclear leukocytes (PMN's) in particular. Particularly effective substances for the treatment of asthma are such which in addition to relaxing the musculature in the respiratory passages also have an anti-inflammatory effect on the cellular phase of the inflammatory process, that is inhibiting the leukocyte function.
Isolated human PMNs are incubated at 37° C. for 10 minutes, whereafter the content of cyclic guanosine monophosphate (c-GMP) is measured. Further, the synthesis of the LTB4 is determined after stimulation with Ca-ionophore (A23187) and the chemotaxis (controlled movement) towards FMLP (a substance attracting the polymorph nuclear leukocytes, PMNs) is determined.
Three compounds according to the invention and the reference substance SIN-1 were tested for their ability to stimulate the content of cyclic guanosine monophosphate (c-GMP).

[3] = human PRP, ADP 2 to 4 μM, 3 min incubation, 37° C.

Compound: [NH-]c1n[n+](-c2ccc(Cl)cc2F)no1 [Example 26]
- Clinical observations (male rats): N.R.
- Hematological parameters (male rats): N.R.
- Side effects (in words) (male rats): no side effects

Compound: O=C([N-]c1n[n+](-c2ccc(Cl)cc2Cl)no1)c1cccnc1 [Example 43]
- Clinical observations (male rats): N.R.
- Hematological parameters (male rats): N.R.
- Side effects (in words) (male rats): no side effects

Compound: O=C([N-]c1n[n+](-c2cccc(C(F)(F)F)c2)no1)c1ccncc1 [Example 50]
- Clinical observations (male rats): N.R.
- Hematological parameters (male rats): N.R.
- Side effects (in words) (male rats): no side effects
- IC50 (blood platelets; [3]): 90 nM

Compound: [NH-]c1n[n+](-c2cccc(Cl)c2Cl)no1 [Example 21, 3-(2-chloro-3-chlorophenyl)-1,2,3,4-oxatriazole-5-imine]
- Clinical observations (male rats): N.R.
- Hematological parameters (male rats): N.R.
- Side effects (in words) (male rats): no side effects

Compound: [NH-]c1n[n+](-c2ccc(Cl)c(Cl)c2)no1 [Example 24]
- % Inhibition of PAI-1 activity (PAI-1): 34%
- PAI-1 activity (PAI-1): 2.14 U/10^8 platelets
- Guanylate cyclase activity ([1]; 0.01 μM): 2374 pmole c-GMP/mg prot. × 15 minutes
- Guanylate cyclase activity ([1]; 10 μm (so in the source)): 59716 pmole c-GMP/mg prot. × 15 minutes
- c-GMP in PMNs ([2]; 1 μM): 391 fmole/10^6 cells
- c-GMP in PMNs ([2]; 10 μM): 965 fmole/10^6 cells
- c-GMP in PMNs ([2]; 100 μM): 1078 fmole/10^6 cells

Compound: O=[N+]([O-])OCC(CO[N+](=O)[O-])O[N+](=O)[O-] [GTN, nitroglycerine, reference compound]
- Inhibition of blood platelet aggregation (in words) (blood platelets; ADP, PRP): inactive
- IC50 (blood platelets; [3]): 100000 nM

Compound: [NH-]c1n[n+](-c2cccc(C(F)(F)F)c2)no1 [Example 3, 3-(3-trifluoromethylphenyl)-1,2,3,4-oxatriazole-5-imine hydrochloride]
- Guanylate cyclase activity ([1]; 0.01 μM): 2499 pmole c-GMP/mg prot. × 15 minutes
- Guanylate cyclase activity ([1]; 10 μm (so in the source)): 47529 pmole c-GMP/mg prot. × 15 minutes

Compound: [NH-]c1n[n+](-c2c(Cl)cccc2Cl)no1 [Example 23]
- Guanylate cyclase activity ([1]; 0.01 μM): 383 pmole c-GMP/mg prot. × 15 minutes
- Guanylate cyclase activity ([1]; 10 μm (so in the source)): 76915 pmole c-GMP/mg prot. × 15 minutes

Compound: [NH-]c1n[n+](-c2ccccc2C(F)(F)F)no1 [Example 2]
- Guanylate cyclase activity ([1]; 0.01 μM): 411 pmole c-GMP/mg prot. × 15 minutes
- Guanylate cyclase activity ([1]; 10 μm (so in the source)): 37920 pmole c-GMP/mg prot. × 15 minutes

Compound: [NH-]c1n[n+](-c2ccc(Cl)c(C(F)(F)F)c2)no1 [Example 18]
- % Inhibition of PAI-1 activity (PAI-1): 40%
- PAI-1 activity (PAI-1): 1.93 U/10^8 platelets
- IC50 (blood platelets; Homo sapiens): 540 nM

Compound: O=C([N-]c1n[n+](-c2cccc(C(F)(F)F)c2)no1)c1cccnc1 [Example 34]
- IC50 (blood platelets; [3]): 190 nM

Compound: N#Cc1ccc(-[n+]2noc([NH-])n2)cc1 [Example 8]
- % Inhibition of PAI-1 activity (PAI-1): 44%
- PAI-1 activity (PAI-1): 1.83 U/10^8 platelets
- Guanylate cyclase activity ([1]; 0.01 μM): 897 pmole c-GMP/mg prot. × 15 minutes
- Guanylate cyclase activity ([1]; 10 μm (so in the source)): 64192 pmole c-GMP/mg prot. × 15 minutes

Compound: Cc1c(Cl)cccc1-[n+]1noc([N-]C2CCCCC2)n1 [Example 63]
- Guanylate cyclase activity ([1]; 0.01 μM): 1761 pmole c-GMP/mg prot. × 15 minutes
- Guanylate cyclase activity ([1]; 10 μm (so in the source)): 72730 pmole c-GMP/mg prot. × 15 minutes

Compound: N#Cc1cccc(-[n+]2noc([NH-])n2)c1 [Example 7]
- IC50 (blood platelets; [3]): 100 nM
